The results in this text go back to patent US20230365592A1 (Agios Pharmaceuticals, Inc., priority 2022, published 2023).

This assay deals with T1, human PAH with the R408W mutation (Homo sapiens, UniProt P00439, R408W).
T1 construct: expressed in transfected cells
T1 sequence (P00439 1-452 R408W): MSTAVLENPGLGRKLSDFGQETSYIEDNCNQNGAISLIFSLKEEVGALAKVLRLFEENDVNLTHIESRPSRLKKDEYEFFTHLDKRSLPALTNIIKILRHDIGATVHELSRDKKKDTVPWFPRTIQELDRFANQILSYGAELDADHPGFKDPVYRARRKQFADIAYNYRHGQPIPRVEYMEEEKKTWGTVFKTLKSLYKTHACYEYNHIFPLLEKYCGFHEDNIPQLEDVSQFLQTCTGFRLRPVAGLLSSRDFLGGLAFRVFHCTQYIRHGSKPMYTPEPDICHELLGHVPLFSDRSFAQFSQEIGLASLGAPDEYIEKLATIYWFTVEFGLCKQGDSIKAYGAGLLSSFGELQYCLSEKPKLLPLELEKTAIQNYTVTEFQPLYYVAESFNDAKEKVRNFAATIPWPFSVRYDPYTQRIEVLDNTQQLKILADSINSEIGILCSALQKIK
In words: Cell Based Phenylalanine Flux Assay.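 Further: after compound treatment, cells received sepiapterin plus isotope-labelled Phenylalanine for 4 hours, then labelled Tyrosine in the medium was quantified, 10-point 2-fold dilution series run in duplicate.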 The note with it: A375 cells expressing human R408W PAH; 24 hrs compound incubation; 13C-Tyrosine by LC-MS; average where tested multiple times; read-out: AC50.
As to `Cn1cnc(-c2nnc(C(=O)N3CCc4[nH]cnc4[C@@H]3c3cc4cccc(C(F)(F)F)n4n3)o2)c1` [Example 1033, (R)-(5-(1-methyl-1H-imidazol-4-yl)-1,3,4-oxadiazol-2-yl)(4-(7-(trifluoromethyl)pyrazolo[1,5-a]pyridin-2-yl)-6,7-dihydro-1H-imidazo[4,5-c]pyridin-5(4H)-yl)methanone], the concentration at half-maximal activity (AC50) – broadly, the concentration giving half of the maximal activity seen – lay within 1000 to 5000 nM.

Turning to `O=C(c1nnc(-c2ncccc2F)o1)N1CCc2[nH]cnc2[C@H]1c1cc2cccc(C(F)(F)F)n2n1` [Example 1034, (S)-(5-(3-fluoropyridin-2-yl)-1,3,4-oxadiazol-2-yl)(4-(7-(trifluoromethyl)pyrazolo[1,5-a]pyridin-2-yl)-6,7-dihydro-1H-imidazo[4,5-c]pyridin-5(4H)-yl)methanone], the concentration at half-maximal activity (AC50) was 500 to 1000 nM.

As to `O=C(c1nnc(-c2ncccc2F)o1)N1CCc2[nH]cnc2[C@@H]1c1cc2cccc(C(F)(F)F)n2n1` [Example 1035, (R)-(5-(3-fluoropyridin-2-yl)-1,3,4-oxadiazol-2-yl)(4-(7-(trifluoromethyl)pyrazolo[1,5-a]pyridin-2-yl)-6,7-dihydro-1H-imidazo[4,5-c]pyridin-5(4H)-yl)methanone], the AC50 is more than 5000 nM.

In the case of `O=C(c1nnc(-c2ccn(C(F)F)n2)o1)N1CCc2[nH]cnc2[C@H]1c1cc2cccc(C(F)(F)F)n2n1` [Example 1036, (S)-(5-(1-(difluoromethyl)-1H-pyrazol-3-yl)-1,3,4-oxadiazol-2-yl)(4-(7-(trifluoromethyl)pyrazolo[1,5-a]pyridin-2-yl)-6,7-dihydro-1H-imidazo[4,5-c]pyridin-5(4H)-yl)methanone], the AC50 lay in the range of 500 to 1000 nM.

On to `O=C(c1nnc(-c2ccn(C(F)F)n2)o1)N1CCc2[nH]cnc2[C@@H]1c1cc2cccc(C(F)(F)F)n2n1` [Example 1037, (R)-(5-(1-(difluoromethyl)-1H-pyrazol-3-yl)-1,3,4-oxadiazol-2-yl)(4-(7-(trifluoromethyl)pyrazolo[1,5-a]pyridin-2-yl)-6,7-dihydro-1H-imidazo[4,5-c]pyridin-5(4H)-yl)methanone], for which the AC50 is more than 5000 nM.

Regarding `Cc1cccn2nc([C@@H]3c4nc[nH]c4CCN3C(=O)c3nnc(-c4cnn(C5CCC5)c4)o3)cc12` [Example 1038, (S)-(5-(1-cyclobutyl-1H-pyrazol-4-yl)-1,3,4-oxadiazol-2-yl)(4-(4-methylpyrazolo[1,5-a]pyridin-2-yl)-6,7-dihydro-1H-imidazo[4,5-c]pyridin-5(4H)-yl)methanone], the AC50 is less than 500 nM.

Turning to `Cc1cccn2nc([C@H]3c4nc[nH]c4CCN3C(=O)c3nnc(-c4cnn(C5CCC5)c4)o3)cc12` [Example 1039, (R)-(5-(1-cyclobutyl-1H-pyrazol-4-yl)-1,3,4-oxadiazol-2-yl)(4-(4-methylpyrazolo[1,5-a]pyridin-2-yl)-6,7-dihydro-1H-imidazo[4,5-c]pyridin-5(4H)-yl)methanone], the AC50 was more than 5000 nM.

With `O=C(c1nnc(-c2cnn(C(F)F)c2)o1)N1CCc2[nH]cnc2[C@H]1c1cc2cccc(C(F)(F)F)n2n1` [Example 1040, (S)-(5-(1-(difluoromethyl)-1H-pyrazol-4-yl)-1,3,4-oxadiazol-2-yl)(4-(7-(trifluoromethyl)pyrazolo[1,5-a]pyridin-2-yl)-6,7-dihydro-1H-imidazo[4,5-c]pyridin-5(4H)-yl)methanone], the half-maximal activity concentration (AC50) lay within 500 to 1000 nM.

With `O=C(c1nnc(-c2cnn(C(F)F)c2)o1)N1CCc2[nH]cnc2[C@@H]1c1cc2cccc(C(F)(F)F)n2n1` [Example 1041, (R)-(5-(1-(difluoromethyl)-1H-pyrazol-4-yl)-1,3,4-oxadiazol-2-yl)(4-(7-(trifluoromethyl)pyrazolo[1,5-a]pyridin-2-yl)-6,7-dihydro-1H-imidazo[4,5-c]pyridin-5(4H)-yl)methanone], the half-maximal activity concentration (AC50) is more than 5000 nM.

In the case of `O=C(c1nnc(-c2ccccn2)o1)N1CCc2[nH]cnc2[C@H]1c1cc2cccc(Cl)n2n1` [Example 1042, (S)-(4-(7-chloropyrazolo[1,5-a]pyridin-2-yl)-6,7-dihydro-1H-imidazo[4,5-c]pyridin-5(4H)-yl)(5-(pyridin-2-yl)-1,3,4-oxadiazol-2-yl)methanone], the AC50 is less than 500 nM.

For `Cn1ncnc1C(=O)N1CCc2[nH]cnc2[C@H]1c1cc2c(C(F)(F)F)cccn2n1` [Example 1044, (S)-(1-methyl-1H-1,2,4-triazol-5-yl)(4-(4-(trifluoromethyl)pyrazolo[1,5-a]pyridin-2-yl)-6,7-dihydro-1H-imidazo[4,5-c]pyridin-5(4H)-yl)methanone], the AC50 is less than 500 nM.

As for `CC(C)(C)c1nnc(C(=O)N2CCc3[nH]cnc3[C@@H]2c2cc3c(Cl)cccn3n2)o1` [Example 1046, (R)-(5-(tert-butyl)-1,3,4-oxadiazol-2-yl)(4-(4-chloropyrazolo[1,5-a]pyridin-2-yl)-6,7-dihydro-1H-imidazo[4,5-c]pyridin-5(4H)-yl)methanone], the AC50 is more than 5000 nM.

In the case of `CC(C)(C)c1nnc(C(=O)N2CCc3[nH]cnc3[C@H]2c2cc3c(Cl)cccn3n2)o1` [Example 1047, (S)-(5-(tert-butyl)-1,3,4-oxadiazol-2-yl)(4-(4-chloropyrazolo[1,5-a]pyridin-2-yl)-6,7-dihydro-1H-imidazo[4,5-c]pyridin-5(4H)-yl)methanone], the concentration at half-maximal activity (AC50) is less than 500 nM.

For the molecule `Cc1ccn2nc([C@@H]3c4nc[nH]c4CCN3C(=O)c3nc(C(F)F)nn3C)cc2c1` [Example 1049, (S)-(3-(difluoromethyl)-1-methyl-1H-1,2,4-triazol-5-yl)(4-(5-methylpyrazolo[1,5-a]pyridin-2-yl)-6,7-dihydro-1H-imidazo[4,5-c]pyridin-5(4H)-yl)methanone], the AC50 was 500 to 1000 nM.

For the molecule `Cn1ncnc1C(=O)N1CCc2[nH]cnc2[C@@H]1c1cc2c(Cl)cccn2n1` [Example 1051, (R)-(4-(4-chloropyrazolo[1,5-a]pyridin-2-yl)-6,7-dihydro-1H-imidazo[4,5-c]pyridin-5(4H)-yl)(1-methyl-1H-1,2,4-triazol-5-yl)methanone], the AC50 is more than 5000 nM.

For the molecule `Cn1nc(C(F)(F)F)nc1C(=O)N1CCc2[nH]cnc2[C@H]1c1cc2c(Cl)cccn2n1` [Example 1052, (S)-(4-(4-chloropyrazolo[1,5-a]pyridin-2-yl)-6,7-dihydro-1H-imidazo[4,5-c]pyridin-5(4H)-yl)(1-methyl-3-(trifluoromethyl)-1H-1,2,4-triazol-5-yl)methanone], the AC50 is less than 500 nM.

As for `Cn1nc(C(F)(F)F)nc1C(=O)N1CCc2[nH]cnc2[C@@H]1c1cc2c(Cl)cccn2n1` [Example 1053, (R)-(4-(4-chloropyrazolo[1,5-a]pyridin-2-yl)-6,7-dihydro-1H-imidazo[4,5-c]pyridin-5(4H)-yl)(1-methyl-3-(trifluoromethyl)-1H-1,2,4-triazol-5-yl)methanone], the half-maximal activity concentration (AC50) was 1000 to 5000 nM.

Take `Cn1nc(Cl)nc1C(=O)N1CCc2[nH]cnc2[C@H]1c1cc2c(Cl)cccn2n1` [Example 1054, (S)-(3-chloro-1-methyl-1H-1,2,4-triazol-5-yl)(4-(4-chloropyrazolo[1,5-a]pyridin-2-yl)-6,7-dihydro-1H-imidazo[4,5-c]pyridin-5(4H)-yl)methanone]: the AC50 is less than 500 nM.

As for `Cn1nc(Cl)nc1C(=O)N1CCc2[nH]cnc2[C@@H]1c1cc2c(Cl)cccn2n1` [Example 1055, (R)-(3-chloro-1-methyl-1H-1,2,4-triazol-5-yl)(4-(4-chloropyrazolo[1,5-a]pyridin-2-yl)-6,7-dihydro-1H-imidazo[4,5-c]pyridin-5(4H)-yl)methanone], the AC50 lay in the range of 1000 to 5000 nM.

Turning to `Cc1cccn2nc([C@@H]3c4nc[nH]c4CCN3C(=O)c3nc(C(F)(F)F)nn3C)cc12` [Example 1056, (S)-(1-methyl-3-(trifluoromethyl)-1H-1,2,4-triazol-5-yl)(4-(4-methylpyrazolo[1,5-a]pyridin-2-yl)-6,7-dihydro-1H-imidazo[4,5-c]pyridin-5(4H)-yl)methanone], the AC50 is less than 500 nM.

Take `Cc1cccn2nc([C@H]3c4nc[nH]c4CCN3C(=O)c3nc(C(F)(F)F)nn3C)cc12` [Example 1057, (R)-(1-methyl-3-(trifluoromethyl)-1H-1,2,4-triazol-5-yl)(4-(4-methylpyrazolo[1,5-a]pyridin-2-yl)-6,7-dihydro-1H-imidazo[4,5-c]pyridin-5(4H)-yl)methanone]: the concentration at half-maximal activity (AC50) is more than 5000 nM.

In the case of `Cc1cccn2nc([C@@H]3c4nc[nH]c4CCN3C(=O)c3nc(C4CC4)nn3C)cc12` [Example 1058, (S)-(3-cyclopropyl-1-methyl-1H-1,2,4-triazol-5-yl)(4-(4-methylpyrazolo[1,5-a]pyridin-2-yl)-6,7-dihydro-1H-imidazo[4,5-c)pyridin-5(4H)-yl)methanone], the AC50 is 500 to 1000 nM.

On to `Cn1nc(C(F)F)nc1C(=O)N1CCc2[nH]cnc2[C@H]1c1cc2c(C(F)(F)F)cccn2n1` [Example 1060, (S)-(3-(difluoromethyl)-1-methyl-1H-1,2,4-triazol-5-yl)(4-(4-(trifluoromethyl)pyrazolo[1,5-a]pyridin-2-yl)-6,7-dihydro-1H-imidazo[4,5-c]pyridin-5(4H)-yl)methanone], for which the half-maximal activity concentration (AC50) is less than 500 nM.

`O=C(c1ccnn1C(F)F)N1CCc2[nH]cnc2[C@H]1c1cc2cccc(Cl)n2n1` [Example 1064, (S)-(4-(7-chloropyrazolo[1,5-a]pyridin-2-yl)-6,7-dihydro-1H-imidazo[4,5-c]pyridin-5(4H)-yl)(1-(difluoromethyl)-1H-pyrazol-5-yl)methanone]: the AC50 lay within 500 to 1000 nM.
